Assay results taken from paper PMC9851200, “Multiparameter phenotypic screening for endogenous TFEB and TFE3 translocation identifies novel chemical series modulating lysosome function” (Autophagy, 2022).

How the values were obtained:
[1] = system: endogenous TFEB; test: TFEB nuclear translocation, immunocytochemistry high-content imaging; type: cell-based; conditions: PKIS2 primary screening
[2] = system: endogenous TFE3; test: TFE3 nuclear translocation, immunocytochemistry high-content imaging; type: cell-based; conditions: PKIS2 primary screening
[3] = system: SH-SY5Y cells; test: Chemotype enrichment analysis of PKIS2 primary screen hit categories; conditions: PKIS2 primary screening, hit category
[4] = system: SH-SY5Y cells; conditions: PKIS2 primary screening; for DQ Intensity: DQ Red BSA intensity; for DQ Spot: DQ Red BSA spot count; as to all read-outs here: reference of the scale not given here
[5] = system: SH-SY5Y cells; test: AK (adenylate kinase) release ToxiLight cytotoxicity assay; conditions: PKIS2 primary screening; also: reference of the scale not given here
[6] = system: SH-SY5Y cells; test: Nuclear count from microscopy images (cellular growth and toxicity); conditions: PKIS2 primary screening; also: reference of the scale not given here

SMILES | TFEB % [1] [%] | TFE3 % [2] [%] | Outcome [3] | DQ Intensity [4] | DQ Spot [4] | AK [5] | Nuclear Count [6]
Cl.Cl.NCC(C(=O)Nc1cc(Br)c(-c2ccnc3[nH]ccc23)s1)c1ccccc1 (stereo not drawn) [UNC10225027A] | 6.97 | 26.86 | TFE3 | 115.17 | 95.94 | 80.33 | 108.23
Cl.Cl.NC[C@H](CC1CCCCC1)NC(=O)c1ccc(-c2ccnc3[nH]ccc23)s1 [UNC10225041A] | 14.98 | 16.73 | TFEB + DQ Int | 229.52 | 72.59 | 135.71 | 83.64
c1ccc(-c2n[nH]cc2Nc2ccnc3ccccc23)nc1 [UNC10225048A] | 2.79 | 9.11 | LYSO TOXIC | 106.75 | 56.59 | 99.18 | 152.96
COc1cc(Nc2ccnc3cc(-c4ccncc4)ccc23)cc(OC)c1OC.Cl [UNC10225049A] | 12.84 | 16.25 | DQ Only | 164.74 | 83.88 | 108.07 | 54.75
c1ccc(Oc2ccc(Nc3ccnc4cc(-c5ccc(CNCCN6CCOCC6)o5)ccc34)cc2)nc1 [UNC10225054A] | 22.56 | 33.41 | LYSO TOXIC | 95.11 | 49.97 | 119.39 | 92.65
CC(C)NCC(Cc1ccccc1)NC(=O)c1cc(Br)c(-c2ccnc3[nH]ccc23)s1.Cl.Cl (stereo not drawn) [UNC10225078A] | 25.83 | 47.42 | LYSO TOXIC | 114.59 | 48.43 | 109.26 | 95.97
N#Cc1cnc2cc(-c3cnc(CNCCN4CCOCC4)s3)ccc2c1Nc1ccc(Oc2ccccc2)cc1 [UNC10225079A] | 5.31 | 6.45 | LYSO TOXIC | 48.97 | 51.66 | 71.03 | 110.49
c1ccc(Oc2ccc(Nc3ccnc4cc(-c5ccc(CN6CCCCC6)o5)ccc34)cc2)nc1 [UNC10225094A] | 15.03 | 31.67 | LYSO TOXIC | 89.29 | 45.68 | 71.77 | 127.56
Fc1cc(Cl)ccc1Nc1ccnc2cc(-c3ccc(CN4CCOCC4)o3)ccc12 [UNC10225106A] | 10.01 | 18.79 | LYSO TOXIC | 127.02 | 67.74 | 77.69 | 98.32
Cl.Cl.NC[C@H](Cc1ccc(C(F)(F)F)cc1)NC(=O)c1cc(Br)c(-c2ccnc3[nH]ccc23)s1 [UNC10225108A] | 5.26 | 23.22 | TFE3 | 147.21 | 85.33 | 105.44 | 144.66
Nc1ncc(-c2ccc3nccc(-c4ccncc4)c3c2)cc1S(=O)(=O)N1CCCCC1 [UNC10225117A] | 3.14 | 4.68 | TOXIC | 254.18 | 83.51 | 150.20 | 82.78
Nc1nccc2scc(-c3ccc4c(c3)CCN4C(=O)Cc3ccccc3)c12 [UNC10225119A] | 5.51 | 4.70 | LYSO TOXIC | 60.09 | 72.10 | 128.12 | 119.23
